From patent publication US7183260B2, “C-terminal modified oxamyl dipeptides as inhibitors of the ICE/ced-3 family of cysteine proteases” (Idun Pharmaceuticals, Inc., priority 1998, dated 2007) come the findings set out here.

Each structure is given as a SMILES string.

What all share (format): biochemical
Common to all, as to settings: continuous assay 60 min, reaction initiated by adding enzyme to substrate-inhibitor mixture

For one experiment, the target named is T1, mICE (Mus musculus, UniProt P29452).
T1 sequence (P29452 123-296 limits assumed): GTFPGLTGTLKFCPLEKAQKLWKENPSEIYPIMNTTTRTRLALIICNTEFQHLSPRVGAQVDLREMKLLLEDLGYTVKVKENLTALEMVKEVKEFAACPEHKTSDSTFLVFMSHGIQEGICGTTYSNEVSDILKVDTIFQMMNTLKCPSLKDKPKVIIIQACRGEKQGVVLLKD
T1 sequence (P29452 315-402 limits assumed): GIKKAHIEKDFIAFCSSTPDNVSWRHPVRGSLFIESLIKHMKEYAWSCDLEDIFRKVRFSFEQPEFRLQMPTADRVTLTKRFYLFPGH
Put plainly: Dissociation constant Ki and irreversible rate constant k3 for irreversible inhibitors (ICE).

The target of a further experiment is MCH-5 (Homo sapiens, UniProt Q14790). In words: Dissociation constant Ki and irreversible rate constant k3 for irreversible inhibitors (Mch5).
Another experiment addresses T2, CPP32 (Homo sapiens, UniProt P42574).
T2 sequence (P42574 29-175 limits assumed): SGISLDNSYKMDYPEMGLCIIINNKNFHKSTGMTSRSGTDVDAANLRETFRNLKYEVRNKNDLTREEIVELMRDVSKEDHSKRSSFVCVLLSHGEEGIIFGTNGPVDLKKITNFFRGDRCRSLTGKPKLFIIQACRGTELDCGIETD
T2 sequence (P42574 176-277 limits assumed): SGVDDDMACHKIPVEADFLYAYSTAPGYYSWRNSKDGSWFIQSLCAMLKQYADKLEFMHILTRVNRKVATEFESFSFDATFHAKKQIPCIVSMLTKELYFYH
In words: Dissociation constant Ki and irreversible rate constant k3 for irreversible inhibitors (CPP32).

The target of the next experiment is T3, MCH-2 (Homo sapiens, UniProt P55212).
T3 sequence (P55212 24-179 limits assumed): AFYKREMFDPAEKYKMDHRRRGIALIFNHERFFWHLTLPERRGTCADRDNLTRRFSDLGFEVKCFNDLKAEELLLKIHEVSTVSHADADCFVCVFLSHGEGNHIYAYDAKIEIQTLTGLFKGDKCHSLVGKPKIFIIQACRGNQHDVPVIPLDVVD
T3 sequence (P55212 194-293 limits assumed): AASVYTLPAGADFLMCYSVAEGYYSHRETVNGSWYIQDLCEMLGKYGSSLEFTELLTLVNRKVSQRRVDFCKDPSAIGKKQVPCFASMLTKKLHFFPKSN
In words: Dissociation constant Ki and irreversible rate constant k3 for irreversible inhibitors (Mch2).

Chain of MCH-5 (Q14790 217-374 limits assumed, species assumed): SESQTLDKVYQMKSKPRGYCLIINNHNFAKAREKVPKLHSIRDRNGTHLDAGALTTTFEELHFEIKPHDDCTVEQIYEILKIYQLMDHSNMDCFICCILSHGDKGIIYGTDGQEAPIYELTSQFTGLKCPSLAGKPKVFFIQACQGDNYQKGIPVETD
Chain of MCH-5 (Q14790 385-479 limits assumed, species assumed): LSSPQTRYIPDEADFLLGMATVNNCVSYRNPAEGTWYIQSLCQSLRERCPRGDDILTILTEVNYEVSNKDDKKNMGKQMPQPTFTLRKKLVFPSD

As to `CC(C)[C@H](NC(=O)C(=O)Nc1cccc2ccccc12)C(=O)N[C@@H](CC(=O)O)C(=O)COc1cccc2ccccc12` [Example 18], at mICE, the Ki worked out at 33 nM and the “mICE k3/Ki” value is 254,000 moles^−1 seconds^−1. On MCH-5, the Ki stood at 10 nM and the “MCH-5 k3/Ki” value is recorded as 177,000 moles^−1 seconds^−1. For the same compound, at CPP32, the “CPP32 k3/Ki” value is on record as 180,000 moles^−1 seconds^−1 and the Ki was 46 nM. Also, at MCH-2, the Ki came to 20 nM and the “MCH-2 k3/Ki” value is listed as 83,700 moles^−1 seconds^−1.
Regarding `CC(C)[C@H](NC(=O)C(=O)Nc1ccc(F)cc1)C(=O)N[C@@H](CC(=O)O)C(=O)COc1c(F)c(F)cc(F)c1F` [Example 91], on mICE, the Ki was 16 nM and the “mICE k3/Ki” value is 906,000 moles^−1 seconds^−1. For the same compound, at MCH-5, the Ki was 15 nM and the “MCH-5 k3/Ki” value was 338,000 moles^−1 seconds^−1. On CPP32, the “CPP32 k3/Ki” value was 36,300 moles^−1 seconds^−1 and the Ki came to 758 nM. For the same compound, at MCH-2, the Ki worked out at 59 nM and the “MCH-2 k3/Ki” value is listed as 121,000 moles^−1 seconds^−1.
With `C[C@H](NC(=O)C(=O)Nc1ccccc1C(C)(C)C)C(=O)N[C@@H](CC(=O)O)C(=O)COP(=O)(c1ccccc1)c1ccccc1` [Example 32], at mICE, the Ki worked out at 98 nM and the “mICE k3/Ki” value is reported as 159,000 moles^−1 seconds^−1. Also, at MCH-5, the Ki was found to be 10 nM and the “MCH-5 k3/Ki” value is recorded as 282,000 moles^−1 seconds^−1. At CPP32, the “CPP32 k3/Ki” value is reported as 327,000 moles^−1 seconds^−1 and the Ki was found to be 34 nM. Also, at MCH-2, the Ki was determined as 16 nM and the “MCH-2 k3/Ki” value is 275,000 moles^−1 seconds^−1.
Consider `CC(C)[C@H](NC(=O)C(=O)Nc1nc2ccccc2[nH]1)C(=O)N[C@@H](CC(=O)O)C(=O)COc1c(F)c(F)cc(F)c1F` [Example 88], for which, at mICE, the Ki was 359 nM and the “mICE k3/Ki” value was 27,400 moles^−1 seconds^−1. Besides, on MCH-5, the Ki stood at 128 nM and the “MCH-5 k3/Ki” value is recorded as 20,800 moles^−1 seconds^−1. In addition, at CPP32, the “CPP32 k3/Ki” value was 3,130 moles^−1 seconds^−1 and the Ki is 3130 nM. Further, at MCH-2, the Ki came to 1430 nM and the “MCH-2 k3/Ki” value is on record as 1,840 moles^−1 seconds^−1.
On to `CC(C)[C@H](NC(=O)C(=O)NC1CCCc2ccccc21)C(=O)N[C@@H](CC(=O)O)C(=O)COc1c(F)c(F)cc(F)c1F` (some centres unmarked) [Example 104], for which, on mICE, the Ki stood at 4.5 nM and the “mICE k3/Ki” value is on record as 2,320,000 moles^−1 seconds^−1. Besides, on MCH-5, the Ki was determined as 5.2 nM and the “MCH-5 k3/Ki” value was 456,000 moles^−1 seconds^−1. At CPP32, the “CPP32 k3/Ki” value is 98,600 moles^−1 seconds^−1 and the Ki came out at 84 nM. Moreover, at MCH-2, the Ki was 13 nM and the “MCH-2 k3/Ki” value is 160,000 moles^−1 seconds^−1.
On to `C[C@H](NC(=O)C(=O)Nc1ccccc1I)C(=O)N[C@@H](CC(=O)O)C(=O)COC(=O)c1c(Cl)cccc1Cl` [Example 38], for which, at mICE, the Ki stood at 152 nM and the “mICE k3/Ki” value is 90,100 moles^−1 seconds^−1. At MCH-5, the Ki amounted to 6 nM and the “MCH-5 k3/Ki” value was 337,000 moles^−1 seconds^−1. In addition, on CPP32, the “CPP32 k3/Ki” value is reported as 942,000 moles^−1 seconds^−1 and the Ki worked out at 13 nM. On MCH-2, the Ki is 6 nM and the “MCH-2 k3/Ki” value is reported as 360,000 moles^−1 seconds^−1.
Regarding `C[C@H](NC(=O)C(=O)NCc1cccc2ccccc12)C(=O)N[C@@H](CC(=O)O)C(=O)COC(=O)c1c(Cl)cccc1Cl` [Example 34], on mICE, the Ki was 9.9 nM and the “mICE k3/Ki” value is 1,160,000 moles^−1 seconds^−1. On MCH-5, the Ki came to 4.2 nM and the “MCH-5 k3/Ki” value was 936,000 moles^−1 seconds^−1. At CPP32, the “CPP32 k3/Ki” value is on record as 187,000 moles^−1 seconds^−1 and the Ki turned out to be 43 nM. Besides, on MCH-2, the Ki stood at 11 nM and the “MCH-2 k3/Ki” value is 214,000 moles^−1 seconds^−1.
As for `C[C@H](NC(=O)C(=O)Nc1ccccc1Cl)C(=O)N[C@@H](CC(=O)O)C(=O)COP(=O)(c1ccccc1)c1ccccc1` [Example 41], at mICE, the Ki was determined as 140 nM and the “mICE k3/Ki” value was 103,000 moles^−1 seconds^−1. At MCH-5, the Ki worked out at 27 nM and the “MCH-5 k3/Ki” value is listed as 179,000 moles^−1 seconds^−1. In addition, on CPP32, the “CPP32 k3/Ki” value is given as 162,000 moles^−1 seconds^−1 and the Ki came to 35 nM. Besides, at MCH-2, the Ki is 11 nM and the “MCH-2 k3/Ki” value was 247,000 moles^−1 seconds^−1.
In the case of `CC(C)[C@H](NC(=O)C(=O)Nc1ccccc1Cl)C(=O)N[C@@H](CC(=O)O)C(=O)COc1c(F)c(F)cc(F)c1F` [Example 105], at mICE, the Ki was 8.4 nM and the “mICE k3/Ki” value was 1,540,000 moles^−1 seconds^−1. Besides, at MCH-5, the Ki came to 52 nM and the “MCH-5 k3/Ki” value is 234,000 moles^−1 seconds^−1. In addition, at CPP32, the “CPP32 k3/Ki” value is 96,300 moles^−1 seconds^−1 and the Ki stood at 122 nM. On MCH-2, the Ki stood at 26 nM and the “MCH-2 k3/Ki” value is listed as 161,000 moles^−1 seconds^−1.
Consider `CC(C)[C@H](NC(=O)C(=O)Nc1cccc2ccccc12)C(=O)N[C@@H](CC(=O)O)C(=O)COC(=O)c1c(Cl)cccc1Cl` [Example 4], for which the Ki worked out at 6.1 nM at mICE, 4 nM at MCH-5, 14 nM on CPP32 and 9 nM on MCH-2.
For `CC(C)[C@H](NC(=O)C(=O)Nc1cccc2ccccc12)C(=O)N[C@@H](CC(=O)O)C(=O)COP(C)(=O)c1ccccc1` (some centres unmarked) [Example 10], in that order: 6.5 nM, 5.4 nM, 19 nM and 11 nM.
Take `C[C@H](NC(=O)C(=O)Nc1ccccc1I)C(=O)N[C@@H](CC(=O)O)C(=O)COC(=O)c1c(Cl)cccc1Cl` [Example 75]: on mICE, the Ki came to 13 nM and the “mICE k3/Ki” value was 1,270,000 moles^−1 seconds^−1. At MCH-5, the Ki stood at 4 nM and the “MCH-5 k3/Ki” value is 551,000 moles^−1 seconds^−1. At CPP32, the “CPP32 k3/Ki” value was 67,600 moles^−1 seconds^−1 and the Ki amounted to 105 nM. Further, on MCH-2, the Ki worked out at 34 nM and the “MCH-2 k3/Ki” value is reported as 28,200 moles^−1 seconds^−1.
For the compound `C[C@H](NC(=O)C(=O)Nc1ccc(F)cc1)C(=O)N[C@@H](CC(=O)O)C(=O)COC(=O)c1c(Cl)cccc1Cl` [Example 44], on mICE, the Ki came to 1450 nM and the “mICE k3/Ki” value was 11,700 moles^−1 seconds^−1. Further, at MCH-5, the Ki was determined as 462 nM and the “MCH-5 k3/Ki” value is 18,700 moles^−1 seconds^−1. At CPP32, the “CPP32 k3/Ki” value is recorded as 22,700 moles^−1 seconds^−1 and the Ki amounted to 1280 nM. In addition, on MCH-2, the Ki came out at 142 nM and the “MCH-2 k3/Ki” value was 18,600 moles^−1 seconds^−1.
Regarding `CC(C)[C@H](NC(=O)C(=O)Nc1ccccc1C(C)(C)C)C(=O)N[C@@H](CC(=O)O)C(=O)COc1c(F)c(F)cc(F)c1F` [Example 93], on mICE, the Ki turned out to be 6 nM and the “mICE k3/Ki” value is reported as 2,052,000 moles^−1 seconds^−1. Also, at MCH-5, the Ki worked out at 3 nM and the “MCH-5 k3/Ki” value is 1,165,000 moles^−1 seconds^−1. In addition, at CPP32, the “CPP32 k3/Ki” value is recorded as 27,700 moles^−1 seconds^−1 and the Ki worked out at 353 nM. At MCH-2, the Ki was found to be 41 nM and the “MCH-2 k3/Ki” value is listed as 112,000 moles^−1 seconds^−1.
Regarding `CC(C)[C@H](NC(=O)C(=O)NCc1ccccc1)C(=O)N[C@@H](CC(=O)O)C(=O)COc1c(F)c(F)cc(F)c1F` [Example 79], on mICE, the Ki was 6 nM and the “mICE k3/Ki” value is 1,800,000 moles^−1 seconds^−1. Besides, on MCH-5, the Ki was determined as 5 nM and the “MCH-5 k3/Ki” value is given as 472,000 moles^−1 seconds^−1. Besides, on CPP32, the “CPP32 k3/Ki” value is reported as 21,000 moles^−1 seconds^−1 and the Ki came to 405 nM. Further, on MCH-2, the Ki amounted to 125 nM and the “MCH-2 k3/Ki” value was 16,600 moles^−1 seconds^−1.
Take `CC(C)[C@H](NC(=O)C(=O)Nc1c(F)cccc1F)C(=O)N[C@@H](CC(=O)O)C(=O)COc1c(F)c(F)cc(F)c1F` [Example 108]: at mICE, the Ki was 4.8 nM and the “mICE k3/Ki” value is reported as 2,680,000 moles^−1 seconds^−1. Also, on MCH-5, the Ki came to 1.9 nM and the “MCH-5 k3/Ki” value was 1,830,000 moles^−1 seconds^−1. Also, on CPP32, the “CPP32 k3/Ki” value is recorded as 62,900 moles^−1 seconds^−1 and the Ki was 102 nM. On MCH-2, the Ki came to 8 nM and the “MCH-2 k3/Ki” value is reported as 1,083,000 moles^−1 seconds^−1.
In the case of `C[C@H](NC(=O)C(=O)Nc1cc(C(C)(C)C)ccc1C(C)(C)C)C(=O)N[C@@H](CC(=O)O)C(=O)COc1c(F)c(F)cc(F)c1F` [Example 40], at mICE, the Ki was 45 nM and the “mICE k3/Ki” value was 195,000 moles^−1 seconds^−1. For the same compound, at MCH-5, the Ki amounted to 10 nM and the “MCH-5 k3/Ki” value is on record as 248,000 moles^−1 seconds^−1. On CPP32, the “CPP32 k3/Ki” value is 221,000 moles^−1 seconds^−1 and the Ki worked out at 63 nM. At MCH-2, the Ki is 15 nM and the “MCH-2 k3/Ki” value is 192,000 moles^−1 seconds^−1.
